Results on three molecules are retold here after patent US7781580B2, “Stilbene derivatives as new cancer therapeutic agents” (Virginia Commonwealth University, priority 2007, dated 2010).

Read-outs that look alike come from different tables or passages of the source.

Data set [1] is described as follows: water solubility of stilbene and carbamate prodrug (salts and free base). Format: physicochemical. The protocol:
Stilbene prodrugs may be made by attaching to a stilbene derivative of interest (e.g. a stilbene derivative with anti-tumor activity), chemical groups (or moieties) that render the stilbene derivative more water soluble than before such a modification is carried out. By “water soluble” we mean that more than 20 mg compound can be fully dissolved in 1 mL of water. Further, the chemical groups that are attached to the stilbene derivative to make the derivative water soluble are labile (i.e. removable) in that, upon exposure to in vitro or in vivo hydrolyzing conditions, the chemical groups are removed or dissociated from the stilbene derivative by hydrolysis, releasing the active, anti-tumor form of the stilbene derivative. The chemical groups which are attached may themselves be biologically active, and are, at least, not biologically injurious to cells or mammals. […] As illustrated, morfolinoethyl-urea, morfolinoethyl-carbamate and triethylene glycol (TEG) groups (5a, 5b, 5c, respectively) may be used for this purpose.

Data set [2] deals with UCI101 ovarian cancer cells. Briefly: Alamar Blue cell growth inhibition, UCI101. It is filed as cell-based. The following applies: UCI101, 48 hours. The protocol:
Cell growth was measured by AlamarBlue™ staining and the percentage of cell growth inhibition was calculated and compared with the control cells that were treated with 0.1% DMSO, the vehicles for the stilbene compounds.
Cells were treated with the tested drug for 2 days before analysis of cell growth by Alamar Blue™ staining. Cells treated with 0.1% DMSO were used as control and set as 100%.
(a) In vitro sensitivity of UCI101 cells toward three potential stilbene prodrugs, 5a-c, was tested in 96-well plates using Alamar Blue™ assays to determine cell growth inhibition. […] (b) 5b induces cell cycle change and apoptosis in UCI101 cells. Cells were incubated with 5b at 1, 3, 10 μM for 16 hours followed by PI staining and flow cytometry analysis. A subG0/1 population, representing apoptotic cells, appeared along with a decrease of the G1/G2 ratio after cells were treated with 3 μM 5b. Higher concentration (10 μM) of 5b completely killed cells, as was the case with stilbene 4a at […]. (c) Cells treated with stilbene 4a and 5b were stained with phospho-histone 3B, a mitotic marker. The positive signals of phospho-histone 3B were shown in green and nuclei were stained with DAPI in blue. […] (d) In vivo efficacy of 5b compared with stilbene 4a. Nude mice were injected with UCI101 ovarian cancer cells and treated with 7 doses of 5b,c or stilbene 4a every 2-3 days. Tumor volume was calculated and plotted against days.
(§1) Various cancer cell lines were grown in 96-well plates for drug sensitivity assays. Once cells achieved 50% confluence, the incubation media was changed to the same cell growth media with different concentrations of the tested compounds or vehicle alone. Cells were then incubated for 48 hours before the cell growth inhibition study. To determine the degree of cell growth inhibition, 1/10 volume of Alamar Blue™ solution was added to each well and optical density (OD) at 570 and 600 nm was determined. The percentage of growth inhibition was calculated according to the manufacturer's formula as follows: The percentage of growth is [(117216×A570)−(80586×A600)]/[(117216×A^o570)−(80586×A^o600)]×100. In this formula, A570 is the absorbance of the treated samples at 570 nm; A600 is the absorbance of the treated samples at 600 nm; A^o570 is the absorbance of the […] samples at 570 nm; and A^o600 is the absorbance of the untreated samples at 600 nm. The two constants, 117216 and 80586, are the extinction coefficients of Alamar Blue™ at 570 and 600 nm respectively. Each concentration was repeated in triplicate to minimize the error.
(§2) We first tested the cytotoxic effect of various stilbene derivatives for their in vitro efficacy of suppressing tumor cell proliferation. Cells were first plated in 96-well plates at 50% confluence and treated with 0, 0.01, 0.03, 0.1, 0.3, 1.0, 3.0, 10 μM concentrations of stilbene derivatives for 48 hours in triplicate. Alamar Blue™ reagent was added into each well at 1/10 volume and incubated for 2 hours before quantification of the absorbance at 570 and 600 nm.

Data set [3] deals with tumor cell proliferation. The data set is described as follows: suppression of tumor cell proliferation, cell line not stated. The conditions noted are these: read-out: IC50, suppressing tumor cell proliferation. Format: cell-based. The method, then: as §1
Data set [4] deals with SNU423 hepatocellular carcinoma cells. The data set is described as follows: Alamar Blue cell growth inhibition, SNU423. Format: cell-based. Summed up: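 Cells at 50% confluence were treated for 48 h in triplicate with 0-10 μM compound or 0.1% DMSO vehicle. Alamar Blue was added at 1/10 volume for 2 h, and absorbance at 570 and 600 nm gave % growth via the manufacturer's extinction-coefficient formula relative to vehicle controls.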
Background: The colour change of resazurin is a common sign of viable cells or microbes.

Data set [5] has as its system MDA-MB231 breast cancer cells. Briefly: Alamar Blue cell growth inhibition, MDA-MB231. It is filed as cell-based. The method, then: Cell growth was measured by Alamar Blue™ staining and the percentage of cell growth inhibition was calculated and compared with control cells that were treated with 0.1% DMSO, the vehicles for the stilbene compounds.
as §1, §2

Data set [6] relates to MiaPaCa2 pancreatic cancer cells. Briefly: Alamar Blue cell growth inhibition, MiaPaCa2. It is filed as cell-based. The protocol:
as §1, §2

In data set [7] the test system is SKOV3 ovarian cancer cells. Briefly: Alamar Blue cell growth inhibition, SKOV3. Format: cell-based. The method, then: Cells were incubated with various concentrations of the compounds for 48 hours. Cell growth was measured by Alamar Blue™ staining and the percentage of cell growth inhibition was calculated and compared with the control cells that were treated with 0.1% DMSO, the vehicle for the stilbene compounds.
as §1

Data set [8] has as its system MDA-MB231 cells. Briefly: immunofluorescent staining of tubulin, MDA-MB231. It is filed as cell-based. The following applies: CA4 10 nM, stilbene 4a 100 nM, vincristine 100 nM, 5b 3 μM; 16 hours. An excerpt:
Nuclei were stained with 4′,6-diamidino-2-phenylindole (DAPI). Control cells show the reticular pattern of the microtubule network.

In data set [9] the test system is UCI101 cells. The data set is described as follows: immunofluorescent staining of tubulin, UCI101. It is filed as cell-based. The conditions noted are these: CA4 10 nM, stilbene 4a 100 nM, 5b 3 μM; 16 hours. An excerpt: Nuclei were stained with DAPI.
Data set [10] has as its system UCI101 ovarian cancer cells. The data set is described as follows: Western blot of signal transduction events, UCI101. Format: cell-based. The following applies: 36 hours. The method, then:
All these agents are microtubule interfering agents but with different binding sites. Cells were harvested at 0, 4, 8, 16 and 36 hours after drug treatment for Western blot analysis. […] Phosphorylation of both Cdc25C and Cdc2 disappeared after 16 hours and slightly recovered at 36 hours. […] Akt phosphorylation decreased after 16 hours of treatment.
In order to understand the mechanism of resistance of stilbenes, various signal transduction pathways were investigated to examine how cells respond to stilbene treatment. UCI101 ovarian cancer cells were treated with stilbenes 4a, 4c or paclitaxel (Taxol) at 0.1 μM for 0, 4, 8, 16 and 36 hours. Cells were harvested for Western blotting. Changes in the kinases involved in cell cycle progression from G2-M transition were first determined in Cdc2, Cdc25c, and mitotic spindle check point regulator BubR1. […] 36 hours after treatment, rephosphorylation of Cdc2 was observed. […] The higher molecular weight isomer of Cdc25c, the mitotic form, increased at 16 and 36 hours. […] A similar study was then performed with other microtubule interfering agents such as combretastatin A4, 13a and vincristine for comparison. A similar trend was observed among these three microtubule interfering agents (FIG. 18).
In general terms: In western blotting, separated proteins are transferred to a membrane and probed.

Data set [11] has as its system MDA-MB231 breast cancer cells. Briefly: cell cycle analysis, MDA-MB231. Format: cell-based. The conditions noted are these: 16 hours. The protocol: (§3) Cells were treated with various concentrations of stilbene 4a or CA4 for 16 hours followed by PI staining and FACscan analysis. […] A unique feature of stilbene 4a was noted when cells were treated with 30 nM.
(§4) Due to the structural similarity between stilbene 4a and CA4, we investigated the difference in the biological activity of these two compounds in MDA-MB231 breast cancer cells and their Chk2−/− derivatives. […] MDA-MB231 cells were treated with 10 nM stilbene 4a or 1 nM CA4. […] However, a difference in cell cycle change was observed following treatment with 30 nM of stilbene 4a versus 3 nM of CA4. […] This was also the case for cells treated with 100 nM stilbene 4a. A significant subG1/0 population was also noted. […] One possible effect could be a DNA damage response, which is a common mechanism of multiple chemotherapeutic agents but not one of pure microtubule-interfering agents such a paclitaxel or vincristine. […] We then obtained conditional Chk1−/− and Chk2−/− cells, which were derived from the same MDA-MB231 cells for the same flow cytometry analysis. […] In contrast, Chk2−/− cells were more sensitive to stilbene 4a. […] This mechanism is not obvious in higher drug concentrations at which the G2 arrest from microtubule interference is dominant. Therefore, in addition to their microtubule interfering effect, stilbenes have another mechanism to induce cell death. Thus, the use of a Chk2 inhibitor in combination with stilbenes may be a viable approach to enhancing the beneficial therapeutic effects of stilbenes.

Data set [12] relates to Chk2−/− cells. Briefly: cell cycle analysis, Chk2-/- MDA-MB231 derivative. Format: cell-based. The conditions noted are these: 16 hours. The method, then: as §3, §4
Data set [13] concerns Chk1−/− cells. Briefly: cell cycle analysis, Chk1-/- MDA-MB231 derivative. Format: cell-based. The protocol:
as §4

For data set [14] the following is noted: clinical studies; cited from earlier work.

As to `COc1cc(/C=C\c2ccc(OC)cc2N)cc(OC)c1.O=C(O)C(=O)O` [4b, (Z)2-[2-(3,5-Dimethoxy-phenyl)-vinyl]-5-methoxy-phenylamine oxalate], the “water solubility (in words)” value in data set [1] is given as “enhanced by the formation of an oxalate salt”. Further, the “relative potency / activity” value in data set [2] is recorded as “less active than stilbene 4a”. Moreover, the IC50 in data set [3] was found to be 80 nM.

Regarding `COc1cc(O)cc(/C=C\c2ccc(OC)c(N)c2)c1.Cl` [10d, (Z)-3-[2-(3-Amino-4-methoxy-phenyl)-vinyl]-5-methoxy-phenol, hydrochloride], the IC50 was 300 to 1000 nM in data set [4] (Homo sapiens, SNU-423, 48 h, read-out: IC50 (50% growth inhibition), SNU423, 48 hours) and 1000 nM in data set [3] (cell line not stated). The effective concentration entry is recorded as “above 0.3 μM” in data set [5] (MDA-MB231, 48 hours) and “above 0.3 μM” in data set [6] (MiaPaCa2, 48 hours). Besides, in [2], the “relative potency / activity” value is on record as “less active than stilbene 4a”.

`COc1ccc(/C=C\c2cc(OC)c(OC)c(OC)c2)cc1O` [combretastatin A4, (Z)-2-Methoxy-5-[2-(3,4,5-trimethoxy-phenyl)-vinyl]-phenol, reference compound]: the “relative potency” value is given as “most potent compound” in [4] (SNU423), “most effective” in [5] (MDA-MB231) and “most effective” in data set [6] (MiaPaCa2). For the same molecule, the “effective concentration, blocking cell proliferation” value in [4] (SNU423, 48 hours) was found to be 0.003 µM. Moreover, the “relative potency / activity” value in data set [2] is reported as “most active compound”. Also, the effective concentration in [7] (SKOV) was 10 nM. Further, in data set [7] (SKOV3, 48 hours), the “effective / active concentration” value was determined as 0.01 µM. Further, the microtubule pattern entry is on record as “did not completely disrupt microtubule formation” in data set [8] and “complete disruption of microtubules” in data set [9]. In addition, the “phosphorylation of Chk1” value in data set [10] was “do not cause more phosphorylation of Chk1”. Further, the “cell cycle change at 10 nM stilbene 4a or 1 nM CA4” value in [11] is “No change was observed”. Also, the “change of effective concentration versus MDA-MB231” value in data set [12] was “decreased by three fold”. The “sensitivity versus MDA-MB231” value in data set [13] was “more resistant”. Further, in data set [14], the “dose above which cardiac toxicity, neurotoxicity and tumor pain were observed” value is listed as “higher than 68 mg/m^2”.
